For orientation: IC50 means the concentration at which inhibition is half-maximal. Higher therefore signals lower potency.

The target in the assay is PIK3CD (Human) (UniProt O00329). The assay is described as follows: Enzyme Assay.
PIK3CD (Human), sequence (O00329 whole entry, looked up): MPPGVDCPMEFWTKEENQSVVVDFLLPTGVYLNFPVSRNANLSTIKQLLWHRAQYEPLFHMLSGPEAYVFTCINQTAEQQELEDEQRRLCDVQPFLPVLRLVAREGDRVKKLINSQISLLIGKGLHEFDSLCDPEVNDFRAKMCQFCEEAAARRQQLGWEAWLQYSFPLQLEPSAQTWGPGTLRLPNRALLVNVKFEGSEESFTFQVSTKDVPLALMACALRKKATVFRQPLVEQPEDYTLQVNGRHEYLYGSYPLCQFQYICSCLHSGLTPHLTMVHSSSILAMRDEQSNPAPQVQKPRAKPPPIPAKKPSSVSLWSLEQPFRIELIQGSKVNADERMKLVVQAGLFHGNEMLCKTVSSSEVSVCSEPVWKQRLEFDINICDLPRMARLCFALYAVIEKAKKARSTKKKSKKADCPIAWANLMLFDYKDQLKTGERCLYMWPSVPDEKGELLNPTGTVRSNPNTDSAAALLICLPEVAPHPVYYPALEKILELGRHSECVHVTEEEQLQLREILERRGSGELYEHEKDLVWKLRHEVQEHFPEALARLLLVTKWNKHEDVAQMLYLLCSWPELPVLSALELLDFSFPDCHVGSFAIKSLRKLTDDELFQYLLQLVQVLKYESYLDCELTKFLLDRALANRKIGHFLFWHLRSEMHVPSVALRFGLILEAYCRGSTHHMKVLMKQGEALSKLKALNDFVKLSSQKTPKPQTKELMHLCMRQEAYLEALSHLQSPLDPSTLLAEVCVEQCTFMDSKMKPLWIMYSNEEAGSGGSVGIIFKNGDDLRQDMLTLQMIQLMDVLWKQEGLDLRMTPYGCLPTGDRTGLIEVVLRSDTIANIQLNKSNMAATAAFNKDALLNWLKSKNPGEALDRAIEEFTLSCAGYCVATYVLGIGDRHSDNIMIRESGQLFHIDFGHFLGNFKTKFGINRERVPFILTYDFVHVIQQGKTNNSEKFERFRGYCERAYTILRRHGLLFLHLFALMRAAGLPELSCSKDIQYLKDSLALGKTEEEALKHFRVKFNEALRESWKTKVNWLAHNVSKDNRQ
Take `Cc1ccc(Cl)c2c(=O)n(-c3ccccc3)c([C@H](C)Nc3nc(N)nc(N)c3C#N)nc12`: the IC50 is not above 1 nM.
To `C[C@H](Nc1nc(N)nc(N)c1C#N)c1nc2cccc(O)c2c(=O)n1-c1ccccc1` belongs not above 1 nM.
In the case of `Cc1cccc2c(=O)n(-c3cc(F)cc(F)c3)c([C@H](C)Nc3nc(N)nc(N)c3C#N)nc12` it was 1 to 10 nM; in that of `Cc1ccc(F)c2nc([C@H](C)Nc3nc(N)nc(N)c3C#N)n(-c3ccccc3)c(=O)c12`, not above 1 nM; in that of `C[C@H](Nc1nc(N)nc(N)c1C#N)c1nc2cccc(Cl)c2c(=O)n1-c1cc(F)cc(C#N)c1`, 1 to 10 nM.
In the case of `Cc1cccc2nc([C@H](C)Nc3nc(N)nc(N)c3C#N)n(-c3cc(F)cc(F)c3)c(=O)c12` it was not above 1 nM; in that of `Cc1ccc(F)c2nc([C@H](C)Nc3nc(N)nc(N)c3C#N)n(-c3cccc(C#N)c3)c(=O)c12`, not above 1 nM.
`C[C@H](Nc1nc(N)nc(N)c1C#N)c1nc2cccc(C#N)c2c(=O)n1-c1cc(F)cc(F)c1` came in with a half-maximal inhibitory concentration (IC50) of 1 to 10 nM.
To `C[C@H](Nc1nc(N)nc(N)c1C(N)=O)c1nc2cccc(Cl)c2c(=O)n1-c1cc(F)cc(F)c1` belongs 1 to 10 nM; to `Cc1cccc2c(=O)n(-c3cccc(Cl)c3)c([C@H](C)Nc3nc(N)nc(N)c3C#N)nc12`, not above 1 nM; to `CC[C@H](Nc1nc(N)nc(N)c1C#N)c1nc2c(C)cccc2c(=O)n1-c1cc(F)cc(F)c1`, 10 to 50 nM.
On to `CCC[C@H](Nc1nc(N)nc(N)c1C#N)c1nc2cccc(F)c2c(=O)n1-c1cc(F)cc(F)c1`, for which the IC50 fell in the range of 1 to 10 nM.
In the case of `CC[C@H](Nc1nc(N)nc(N)c1C#N)c1nc2c(Cl)cccc2c(=O)n1-c1cc(F)cc(F)c1` it was 10 to 50 nM.
To `C[C@H](Nc1nc(N)nc(N)c1C#N)c1nc2cccc(F)c2c(=O)n1-c1cccc(C(F)F)c1` belongs 1 to 10 nM; to `CC[C@H](Nc1nc(N)nc(N)c1C#N)c1nc2cccc(C(F)F)c2c(=O)n1-c1cc(F)cc(F)c1`, 1 to 10 nM; to `C[C@H](Nc1nc(N)nc(N)c1C#N)c1nc2cccc(Cl)c2c(=O)n1-c1cc(F)cc(Cl)c1`, 1 to 10 nM.
To `C[C@H](Nc1nc(N)nc(N)c1C#N)c1nc2cccc(F)c2c(=O)n1-c1cccc(F)c1` belongs 1 to 10 nM; to `C[C@H](Nc1nc(N)nc(N)c1C#N)c1nc2c(C#N)cccc2c(=O)n1-c1ccccc1`, 1 to 10 nM.
As for `C[C@H](Nc1nc(N)nc(N)c1C#N)c1nc2ccc(F)cc2c(=O)n1-c1cccc(C#N)c1`, the IC50 lay in the range of 10 to 50 nM.
`C[C@H](Nc1nc(N)nc(N)c1C#N)c1nc2cccc(Cl)c2c(=O)n1-c1cc(F)cc(C(F)F)c1` showed an IC50 not above 1 nM.
In the case of `C[C@H](Nc1nc(N)nc(N)c1C#N)c1cc2cccc(Cl)c2c(=O)n1-c1ccccc1` it was not above 1 nM; in that of `C[C@H](Nc1nc(N)nc(N)c1C#N)c1nc2c(F)ccc(C#N)c2c(=O)n1-c1ccccc1`, 1 to 10 nM; in that of `Cc1cccc2c(=O)n(-c3ccccc3)c([C@H](C)Nc3nc(N)nc(N)c3C#N)nc12`, 1 to 10 nM.
`CC(C)[C@H](Nc1nc(N)nc(N)c1C#N)c1nc2cccc(Cl)c2c(=O)n1-c1ccccc1` gave an IC50 not above 1 nM.
To `C[C@H](Nc1nc(N)nc(N)c1C#N)c1nc2cccc(F)c2c(=O)n1-c1cccc(C(F)(F)F)c1` belongs 1 to 10 nM; to `C[C@H](Nc1nc(N)nc(N)c1C#N)c1nc2c(F)ccc(F)c2c(=O)n1-c1cccc(C#N)c1`, 10 to 50 nM; to `CC[C@H](Nc1nc(N)nc(N)c1C#N)c1nc2c(F)ccc(F)c2c(=O)n1-c1cccc(F)c1`, 1 to 10 nM.
The compound `CC[C@H](Nc1nc(N)nc(N)c1C#N)c1nc2ccc(F)c(F)c2c(=O)n1-c1cc(F)cc(F)c1` displayed a half-maximal inhibitory concentration (IC50) of 10 to 50 nM.
To `C[C@H](Nc1nc(N)nc(N)c1C#N)c1nc2c(F)ccc(C#N)c2c(=O)n1-c1cc(F)cc(F)c1` belongs 10 to 50 nM.
To `C[C@H](Nc1nc(N)nc(N)c1C#N)c1nc2cccc(Cl)c2c(=O)n1-c1cc(Cl)cc(C(F)F)c1` belongs 1 to 10 nM; to `C[C@H](Nc1nc(N)nc(N)c1C(N)=O)c1nc2cccc(Cl)c2c(=O)n1-c1cccc(C(F)F)c1`, 1 to 10 nM.
To `C[C@H](Nc1nc(N)nc(N)c1C#N)c1nc2cccc(C(N)=O)c2c(=O)n1-c1cc(F)cc(F)c1` belongs 10 to 50 nM; to `C[C@H](Nc1nc(N)nc(N)c1C#N)c1nc2c(F)ccc(F)c2c(=O)n1-c1cccc(F)c1`, 1 to 10 nM.
`CC[C@H](Nc1nc(N)nc(N)c1C#N)c1nc2cccc(F)c2c(=O)n1-c1cc(F)cc(F)c1`: the IC50 lay in the range of 1 to 10 nM.
In the case of `C[C@H](Nc1nc(N)nc(N)c1C#N)c1nc2c(Cl)cccc2c(=O)n1-c1cc(F)cc(F)c1` it was 1 to 10 nM; in that of `COc1cc(C(F)F)cc(-n2c([C@H](C)Nc3nc(N)nc(N)c3C#N)nc3cccc(Cl)c3c2=O)c1`, 1 to 10 nM.
In the case of `C[C@H](Nc1nc(N)nc(N)c1Cl)c1nc2cccc(Cl)c2c(=O)n1-c1ccccc1` it was not above 1 nM; in that of `C[C@H](Nc1nc(N)nc(N)c1C#N)c1nc2c(C#N)cc(F)cc2c(=O)n1-c1cccc(F)c1`, 1 to 10 nM; in that of `CC(C)C[C@H](Nc1nc(N)nc(N)c1C#N)c1nc2cccc(Cl)c2c(=O)n1-c1cc(F)cc(F)c1`, 1 to 10 nM.
Compound `C[C@H](Nc1nc(N)nc(N)c1C#N)c1nc2cccc(Cl)c2c(=O)n1-c1cc(F)cc(F)c1` registered an IC50 not above 1 nM.
In the case of `C[C@H](Nc1nc(N)nc(N)c1C#N)c1nc2cc(F)c(F)cc2c(=O)n1-c1cc(F)cc(F)c1` it was 10 to 50 nM; in that of `C[C@H](Nc1nc(N)nc(N)c1C#N)c1nc2c(C#N)cc(F)cc2c(=O)n1-c1cc(F)cc(F)c1`, 10 to 50 nM; in that of `C[C@H](Nc1nc(N)nc(N)c1C#N)c1nc2c(F)cc(F)cc2c(=O)n1-c1cc(F)cc(F)c1`, 10 to 50 nM.
To `C[C@H](Nc1nc(N)nc(N)c1C#N)c1nc2cccc(Cl)c2c(=O)n1-c1cccc(C(F)(F)F)c1` belongs 1 to 10 nM; to `C[C@H](Nc1nc(N)nc(N)c1C#N)c1nc2cccc(Cl)c2c(=O)n1-c1ccccc1`, not above 1 nM.
The compound `CC[C@H](Nc1nc(N)nc(N)c1C#N)c1nc2ccccc2c(=O)n1-c1cc(F)cc(F)c1` showed an IC50 of 10 to 50 nM.
As for `C[C@H](Nc1nc(N)nc(N)c1C#N)c1nc2cccc(Cl)c2c(=O)n1-c1cc(F)cc(C(F)(F)F)c1`, the IC50 lay in the range of 1 to 10 nM.
In the case of `C[C@H](Nc1nc(N)nc(N)c1C#N)c1nc2ccc(F)cc2c(=O)n1-c1ccccc1` it was 1 to 10 nM; in that of `C[C@H](Nc1nc(N)nc(N)c1C#N)c1nc2cccc(S(C)(=O)=O)c2c(=O)n1-c1c(F)cccc1F`, 1 to 10 nM.
To `COC[C@@H](Nc1nc(N)nc(N)c1C#N)c1nc2cccc(Cl)c2c(=O)n1-c1cc(F)cc(F)c1` belongs 1 to 10 nM; to `C[C@H](Nc1nc(N)nc(N)c1C#N)c1nc2c(C#N)cccc2c(=O)n1-c1cc(F)cc(F)c1`, 1 to 10 nM.
In the case of `C[C@H](Nc1ncnc(N)c1C#N)c1nc2cccc(Cl)c2c(=O)n1-c1ccccc1` it was not above 1 nM.
`C[C@H](Nc1nc(N)nc(N)c1C#N)c1nc2cccc(F)c2c(=O)n1-c1cc(F)cc(C(F)F)c1`: the IC50 was in the range of 10 to 50 nM.
To `Cc1cccc2nc([C@H](C)Nc3nc(N)nc(N)c3C#N)n(-c3cc(F)cc(C#N)c3)c(=O)c12` belongs 1 to 10 nM; to `C[C@H](Nc1nc(N)nc(N)c1C#N)c1nc2c(Cl)cc(F)cc2c(=O)n1-c1cc(F)cc(F)c1`, 1 to 10 nM; to `C[C@H](Nc1nc(N)nc(N)c1C#N)c1nc2cccc(Br)c2c(=O)n1-c1ccccc1`, not above 1 nM.
In turn, `C[C@H](Nc1nc(N)nc(N)c1C#N)c1nc2cccc(C#N)c2c(=O)n1-c1ccccc1` showed an IC50 of 1 to 10 nM.
In the case of `COc1cccc(-n2c([C@H](C)Nc3nc(N)nc(N)c3C#N)nc3cccc(Cl)c3c2=O)c1` it was not above 1 nM; in that of `C[C@H](Nc1nc(N)nc(N)c1C#N)c1nc2c(Cl)ccc(Cl)c2c(=O)n1-c1cc(F)cc(F)c1`, 1 to 10 nM.
To `C[C@H](Nc1nc(N)nc(N)c1C#N)c1nc2c(C(F)F)cccc2c(=O)n1-c1ccccc1` belongs 10 to 50 nM; to `C[C@H](Nc1nc(N)nc(N)c1C#N)c1nc2cccc(Cl)c2c(=O)n1-c1cccc(F)c1`, not above 1 nM; to `C[C@H](Nc1nc(N)nc(N)c1C#N)c1nc2ccc(F)cc2c(=O)n1-c1cc(F)cc(F)c1`, 1 to 10 nM.
In the case of `Cc1ccc(F)c2c(=O)n(-c3ccccc3)c([C@H](C)Nc3nc(N)nc(N)c3C#N)nc12` it was 1 to 10 nM.
Take `C[C@H](Nc1nc(N)nc(N)c1C#N)c1nc2cccc(C(F)F)c2c(=O)n1-c1cc(F)cc(F)c1`: the IC50 fell in the range of 1 to 10 nM.
Compound `Cc1ccc(Cl)c2c(=O)n(-c3cccc(Cl)c3)c([C@H](C)Nc3nc(N)nc(N)c3C#N)nc12` gave an IC50 not above 1 nM.
Compound `C[C@H](Nc1nc(N)nc(N)c1C#N)c1nc2c(F)ccc(Cl)c2c(=O)n1-c1cc(F)cc(F)c1` came in with an IC50 not above 1 nM.
To `C[C@H](Nc1nc(N)nc(N)c1C#N)c1nc2cccc(Cl)c2c(=O)n1-c1cc(C(F)F)cc(C(F)F)c1` belongs 1 to 10 nM; to `C[C@H](Nc1nc(N)nc(N)c1C#N)c1nc2ccc(F)c(Cl)c2c(=O)n1-c1cccc(C#N)c1`, 10 to 50 nM.
To `C[C@H](Nc1nc(N)nc(N)c1C#N)c1nc2cccc(S(C)(=O)=O)c2c(=O)n1-c1cc(F)cc(F)c1` belongs 1 to 10 nM; to `C[C@H](Nc1nc(N)nc(N)c1C#N)c1nc2c(F)ccc(Cl)c2c(=O)n1-c1cc(F)cc(C#N)c1`, 10 to 50 nM; to `CC(C)[C@H](Nc1nc(N)nc(N)c1C#N)c1nc2cccc(Cl)c2c(=O)n1-c1cc(F)cc(F)c1`, 1 to 10 nM.
In the case of `C[C@H](Nc1nc(N)nc(N)c1C#N)c1nc2c(F)ccc(Cl)c2c(=O)n1-c1cccc(C#N)c1` it was 1 to 10 nM; in that of `CC[C@H](Nc1nc(N)nc(N)c1C#N)c1nc2cccc(F)c2c(=O)n1-c1cc(F)cc(C(F)F)c1`, 10 to 50 nM.

For the origin of these results see the Kinase Knowledgebase extract (Sharma et al. 2016).
